Measured values: publication PMC3966878, “Crystal Structure of ORF210 from E. coli O157:H1 Phage CBA120 (TSP1), a Putative Tailspike Protein” (PLoS ONE, 2014)

How the values were obtained:
[1] = biological target: T1, TSP1 (ORF210) from CBA120 phage (Escherichia phage Cba120, UniProt G3M189); test: X-ray crystal structure (soak), […] Å; assay type: binding; settings: crystal soak in mother liquor with 37% saturated sugar, Tris-HCl pH 7.0-7.6
T1 construct: full length, 770 residues plus C-terminal 6xHis tag; codon-optimized gene expressed in E. coli BL21; homotrimer, 82 kDa monomer; one Zn2+ per trimer
T1 sequence (G3M189 1-770): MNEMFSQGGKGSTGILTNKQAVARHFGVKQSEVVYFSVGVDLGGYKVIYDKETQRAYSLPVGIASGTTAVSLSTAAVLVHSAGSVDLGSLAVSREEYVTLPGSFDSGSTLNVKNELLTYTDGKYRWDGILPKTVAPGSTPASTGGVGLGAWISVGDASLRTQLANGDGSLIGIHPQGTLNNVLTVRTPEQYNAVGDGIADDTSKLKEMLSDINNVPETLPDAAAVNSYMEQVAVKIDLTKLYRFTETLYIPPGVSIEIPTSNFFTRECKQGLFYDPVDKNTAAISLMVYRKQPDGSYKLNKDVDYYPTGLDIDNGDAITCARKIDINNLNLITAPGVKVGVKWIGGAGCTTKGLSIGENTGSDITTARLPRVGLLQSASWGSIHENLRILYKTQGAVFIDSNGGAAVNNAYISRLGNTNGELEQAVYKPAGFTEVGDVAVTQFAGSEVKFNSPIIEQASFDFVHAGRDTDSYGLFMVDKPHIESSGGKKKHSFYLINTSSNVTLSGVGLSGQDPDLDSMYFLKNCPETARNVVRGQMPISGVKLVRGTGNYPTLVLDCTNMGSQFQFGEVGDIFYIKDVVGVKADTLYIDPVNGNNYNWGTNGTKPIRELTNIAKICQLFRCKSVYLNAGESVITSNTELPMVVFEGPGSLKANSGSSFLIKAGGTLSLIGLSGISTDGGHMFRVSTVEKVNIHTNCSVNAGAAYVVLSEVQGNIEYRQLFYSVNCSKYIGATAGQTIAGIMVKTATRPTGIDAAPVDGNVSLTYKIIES

[2] = biological target: T1, TSP1 (ORF210) from CBA120 phage; test: X-ray crystal structure (soak), […] Å; assay type: binding; settings: crystal soak in mother liquor with 37% saturated sugar, Tris-HCl pH 7.0-7.6; site on the surface of D3, single subunit (Tyr306, Tyr427, Phe443, Ala430)
[3] = biological target: the molecule itself; test: SEC; analytical gel filtration, Superose 6, 100 ug TSP1, isocratic in PBS; mass from a standard curve of gel filtration standards
[4] = biological target: the molecule itself; test: crystal structure; hanging drop, 0.1 M Tris-HCl pH 7.0-7.6, 16% PEG 1000, room temperature; space group P212121; MAD phasing on Se-Met crystal; 1.8 A

## OC[C@H]1O[C@@H](O)[C@H](O)[C@@H](O)[C@@H]1O [glucose]
[1]; site in D3-D4 hole next to D4, single subunit (Glu639, Lys662, Lys615)
  X-ray crystal structure (soak), 2.0 Å: 4OJL for TSP1/glucose complex

## OC[C@H]1O[C@H](O[C@H]2[C@H](O)[C@@H](O)[C@@H](O)O[C@@H]2CO)[C@H](O)[C@@H](O)[C@@H]1O [α-maltose]
[2]
  X-ray crystal structure (soak), 1.95 Å: 4OJP for TSP1/maltose complex

## OC[C@H]1O[C@@H](O[C@H]2[C@H](O)[C@@H](O)[C@@H](O)O[C@@H]2CO)[C@H](O)[C@@H](O)[C@H]1O [α-lactose]
[1]; site deep in D3-D4 hole between two subunits (Val579, Lys577, Asp585)
  X-ray crystal structure (soak), 2.0 Å: 4OJO for TSP1/lactose complex

B1: TSP1 (tailspike protein 1, ORF210) from bacteriophage CBA120, wild-type, with C-terminal 6X-His tag (natural protein, bacteriophage CBA120 (vB_EcoM_CBA120), UniProt G3M189 1-770, looked up)
chain: MNEMFSQGGKGSTGILTNKQAVARHFGVKQSEVVYFSVGVDLGGYKVIYDKETQRAYSLPVGIASGTTAVSLSTAAVLVHSAGSVDLGSLAVSREEYVTLPGSFDSGSTLNVKNELLTYTDGKYRWDGILPKTVAPGSTPASTGGVGLGAWISVGDASLRTQLANGDGSLIGIHPQGTLNNVLTVRTPEQYNAVGDGIADDTSKLKEMLSDINNVPETLPDAAAVNSYMEQVAVKIDLTKLYRFTETLYIPPGVSIEIPTSNFFTRECKQGLFYDPVDKNTAAISLMVYRKQPDGSYKLNKDVDYYPTGLDIDNGDAITCARKIDINNLNLITAPGVKVGVKWIGGAGCTTKGLSIGENTGSDITTARLPRVGLLQSASWGSIHENLRILYKTQGAVFIDSNGGAAVNNAYISRLGNTNGELEQAVYKPAGFTEVGDVAVTQFAGSEVKFNSPIIEQASFDFVHAGRDTDSYGLFMVDKPHIESSGGKKKHSFYLINTSSNVTLSGVGLSGQDPDLDSMYFLKNCPETARNVVRGQMPISGVKLVRGTGNYPTLVLDCTNMGSQFQFGEVGDIFYIKDVVGVKADTLYIDPVNGNNYNWGTNGTKPIRELTNIAKICQLFRCKSVYLNAGESVITSNTELPMVVFEGPGSLKANSGSSFLIKAGGTLSLIGLSGISTDGGHMFRVSTVEKVNIHTNCSVNAGAAYVVLSEVQGNIEYRQLFYSVNCSKYIGATAGQTIAGIMVKTATRPTGIDAAPVDGNVSLTYKIIES
notes: Tailspike protein 1 (TSP1), open reading frame 210 (tsp1) of the phage CBA120 genome, codon-optimised synthetic gene; the encoded 770 amino acid residues followed by six histidines; A construct with an N-terminal 6X-His tag was dropped; the C-terminal tag construct was used for all experiments; also called CBA120 TSP1; wild-type TSP1; source: E. coli BL21 (pBAD24, arabinose induction), purified …
[3]
  stoichiometry N: 3

B2: Selenomethionine derivative of TSP1 (ORF210) from bacteriophage CBA120, with C-terminal 6X-His tag (natural protein, bacteriophage CBA120 (vB_EcoM_CBA120), UniProt G3M189 1-770, looked up)
chain: MNEMFSQGGKGSTGILTNKQAVARHFGVKQSEVVYFSVGVDLGGYKVIYDKETQRAYSLPVGIASGTTAVSLSTAAVLVHSAGSVDLGSLAVSREEYVTLPGSFDSGSTLNVKNELLTYTDGKYRWDGILPKTVAPGSTPASTGGVGLGAWISVGDASLRTQLANGDGSLIGIHPQGTLNNVLTVRTPEQYNAVGDGIADDTSKLKEMLSDINNVPETLPDAAAVNSYMEQVAVKIDLTKLYRFTETLYIPPGVSIEIPTSNFFTRECKQGLFYDPVDKNTAAISLMVYRKQPDGSYKLNKDVDYYPTGLDIDNGDAITCARKIDINNLNLITAPGVKVGVKWIGGAGCTTKGLSIGENTGSDITTARLPRVGLLQSASWGSIHENLRILYKTQGAVFIDSNGGAAVNNAYISRLGNTNGELEQAVYKPAGFTEVGDVAVTQFAGSEVKFNSPIIEQASFDFVHAGRDTDSYGLFMVDKPHIESSGGKKKHSFYLINTSSNVTLSGVGLSGQDPDLDSMYFLKNCPETARNVVRGQMPISGVKLVRGTGNYPTLVLDCTNMGSQFQFGEVGDIFYIKDVVGVKADTLYIDPVNGNNYNWGTNGTKPIRELTNIAKICQLFRCKSVYLNAGESVITSNTELPMVVFEGPGSLKANSGSSFLIKAGGTLSLIGLSGISTDGGHMFRVSTVEKVNIHTNCSVNAGAAYVVLSEVQGNIEYRQLFYSVNCSKYIGATAGQTIAGIMVKTATRPTGIDAAPVDGNVSLTYKIIES
modifications: selenomethionine in place of methionine
notes: Tailspike protein 1 (TSP1), open reading frame 210 (tsp1) of the phage CBA120 genome, same plasmid pBAD24::tsp1 as m1; the encoded 770 amino acid residues followed by six histidines; also called Se-Met TSP1; SeMet TSP1; source: E. coli B834 (methionine auxotroph, SelenoMet media with 40 mg/L selenomethionine), purified as the wild type; not shown: His6, C-terminal, kept
[4]
  stoichiometry N: 3
